This is an account of results in patent US6544983B2, “Diazepinoindoles for the treatment of chronic obstructive pulmonary disease” (Pfizer Inc, priority 2000, dated 2003).

In data set [1] the test system is LPS-induced TNFα release in whole blood. Put plainly: Inhibition of in vitro LPS-induced TNFα production in whole blood of COPD patients. Particulars: Homo sapiens; whole blood of COPD patients (n=7), LPS 50 μg/ml, 22-24 h at 37° C., ELISA. Type of data set: cell-based. From the text: The aim of this study was to compare the in vitro activities of three selective PDE4 inhibitors (compound 1, rolipram which is 4-[3-(cyclopentyloxy)-4-methoxy-phenyl]-2-pyrrolidinone, and cilomilast) at reducing lipopolysaccharide (LPS)-induced TNFα release in whole blood of COPD patients. Thirteen COPD patients, diagnosed according to the ATS guidelines^iv, were included in this study to determine the concentration-effect of LPS on TNF^α production (n=6) and the IC50 values of compound 1, rolipram and cilomilast (n=7).
Blood (15 ml/patient) was collected in heparin tubes and distributed in 96-well microplates (250 μl/well).
After a 30-min incubation at 37° C., 25 μl of increasing concentrations of the compound to test or vehicle were added in different wells. The microplates were incubated at 37° C. for 30 min, and then 25 μl of LPS (E. coli) at 50 μg/ml (stimulated wells) or 25 μl of sterile saline (unstimulated wells) were added. The microplates were incubated 22-24 h at 37° C.
125 μl of the supernatant plasma were transferred gently in sterile 96-well microplates and stored at −80° C. until TNFα assay. The TNFα production was then measured by an ELISA assay.

Data set [2] deals with LPS-induced lung neutrophilia. The data set can be described thus: Neutrophilia induced by LPS aerosol in the C57 bl/6 mouse. The format is in vivo. The settings on record: oral route, 1 h before LPS aerosol 100 μg/ml; bronchoalveolar washings 24 h after exposure. The protocol:
(§1) The model retained to assess the usefulness of the compounds of the invention for the treatment of COPD was a neutrophilia model. Neutrophilia was induced by exposure of rats or mice to a lipopolysaccharide (LPS) aerosol.
The animals were treated with compound 1 when conscious, that was by the oral route.
One hour after treatment, the mice were placed in a plexiglass box (at most 25 mice to a box) and were given a 100 μg/ml aerosol of LPS (Escherichia coli, serotype O55:B5) for 1 hour. Control mice were not given the LPS aerosol.
Twenty-four hours after the exposure to the LPS, the animals were then anaesthetised by an intraperitoneal injection of 0.6% sodium pentobarbital at a rate of 15 ml/kg. A tracheotomy was carried out and a tracheal cannula was inserted. […]
The cells contained in the bronchoalveolar washing fluid were counted using a Coulter particle counter. […]
The arithmetic mean and the standard deviation (SD) of the number of neutrophils in the bronchoalveolar washing fluids were calculated for each treatment group. The percentage inhibition was calculated in the following manner: [formula] […]
The 90% confidence interval for the percentage inhibition was to be calculated by the “Delta method” or “Fieller method” ^i, ii & iii (Armitage & al, 1998; Feuerstein & al, 1997; Hubert & al, 1988) if appropriate.

Data set [3] has as its system LPS-induced lung neutrophilia. Put plainly: Neutrophilia induced by LPS aerosol in the Wistar rat. The format is in vivo. Particulars: Wistar rats, oral. The method, then: as §1
The animals were treated with compound 1 or cilomilast when conscious, that was by the oral route.
One hour after the treatment, the rats were placed in a plexiglass box and were given a 200 μg/ml aerosol of LPS (Escherichia coli, serotype O55:B5) for 1 hour. Control rats were not given the LPS aerosol. This control is called ‘sham’ in FIGS. 1 and 2.
Two hours after the exposure to the LPS, the animals were then anaesthetised by intraperitoneal injection of 6% sodium pentobarbital at a rate of 1 ml/kg. A tracheotomy was carried out and a tracheal cannula was inserted.
Using a 5-ml syringe, 3 consecutive washings were carried out with a 5-ml volume of a […] NaCl+EDTA solution (37° C.), in order to recover the cell population present in the lumen of the airways. The fluid which had thus been withdrawn was stored at +4° C. on ice.

The nature of data set [4]: Half-life in humans after single oral doses to healthy volunteers. Particulars: human, in vivo, single oral doses 1 to 25 mg. The text has this: Such values indicate that compound 1 may be administered once daily.
For data set [5] the following is noted: in humans; Torphy et al. 1999; cited from earlier work.
The conditions of data set [6]: single dose of 20 mg; Murdoch et al. 1998; cited from earlier work.

Each structure is given as a SMILES string. Read-outs that look alike come from different tables or passages of the source.

For `COc1ccc(C2CNC(=O)C2)cc1OC1CCCC1` (stereo not drawn) [rolipram, 4-[3-(cyclopentyloxy)-4-methoxy-phenyl]-2-pyrrolidinone], the IC50 in data set [1] came out at 2800 ± 900 nM.

Regarding `Nc1cc2c3c(c1)C(c1ccccc1)=N[C@@H](NC(=O)c1cccnc1)C(=O)N3CC2` [compound 1, (3R)N-(9-amino-4-oxo-1-phenyl-3,4,6,7-tetrahydro-[1,4]diazepino[6,7,1-hi]indol-3-yl)-nicotinamide], in data set [2], the “inhibition of the LPS-induced lung neutrophilia in mice” value is reported as “strongly inhibited”. Besides, the “efficiency relative to cilomilast at the same dose” value in data set [3] (10 mg/kg) was “twice more efficient than cilomilast”. For the same molecule, the “percentage of inhibition of the LPS-induced lung neutrophilia” value was found to be 74% in data set [3] (10 mg/kg) and 80% in data set [3] (30 mg/kg). This molecule also registered an IC50 in data set [1] of 1300 ± 700 nM. The half-life in data set [4] (read-out: mean terminal half-life values, range over doses) was 834 to 1030 min; in data set [4] (read-out: terminal half-life, mean over all doses (converted)), 924 min.

Turning to `COc1ccc([C@]2(C#N)CC[C@@H](C(=O)O)CC2)cc1OC1CCCC1` [cilomilast, cis-4-cyano-4-[3-(cyclopentyloxy)-4-methoxyphenyl]cyclohexane carboxylic acid], the “percentage of inhibition of the LPS-induced lung neutrophilia” value in data set [3] (30 mg/kg) amounted to 74%. For the same molecule, the IC50 in data set [1] was greater than 10000 nM. The elimination half-life entry in data set [5] is recorded as “approximately 8 hours”. Also, in data set [6], the side effects result is “relevant side effects such as nausea and vomiting occurred”.
